The values that follow come from ChEMBL document CHEMBL2407028, “Discovery of novel oxazolidinedione derivatives as potent and selective mineralocorticoid receptor antagonists” (Bioorg Med Chem Lett, 2013).

One assay concerns the target T1, Androgen receptor (Homo sapiens, UniProt P10275).
T1 sequence (P10275 whole entry): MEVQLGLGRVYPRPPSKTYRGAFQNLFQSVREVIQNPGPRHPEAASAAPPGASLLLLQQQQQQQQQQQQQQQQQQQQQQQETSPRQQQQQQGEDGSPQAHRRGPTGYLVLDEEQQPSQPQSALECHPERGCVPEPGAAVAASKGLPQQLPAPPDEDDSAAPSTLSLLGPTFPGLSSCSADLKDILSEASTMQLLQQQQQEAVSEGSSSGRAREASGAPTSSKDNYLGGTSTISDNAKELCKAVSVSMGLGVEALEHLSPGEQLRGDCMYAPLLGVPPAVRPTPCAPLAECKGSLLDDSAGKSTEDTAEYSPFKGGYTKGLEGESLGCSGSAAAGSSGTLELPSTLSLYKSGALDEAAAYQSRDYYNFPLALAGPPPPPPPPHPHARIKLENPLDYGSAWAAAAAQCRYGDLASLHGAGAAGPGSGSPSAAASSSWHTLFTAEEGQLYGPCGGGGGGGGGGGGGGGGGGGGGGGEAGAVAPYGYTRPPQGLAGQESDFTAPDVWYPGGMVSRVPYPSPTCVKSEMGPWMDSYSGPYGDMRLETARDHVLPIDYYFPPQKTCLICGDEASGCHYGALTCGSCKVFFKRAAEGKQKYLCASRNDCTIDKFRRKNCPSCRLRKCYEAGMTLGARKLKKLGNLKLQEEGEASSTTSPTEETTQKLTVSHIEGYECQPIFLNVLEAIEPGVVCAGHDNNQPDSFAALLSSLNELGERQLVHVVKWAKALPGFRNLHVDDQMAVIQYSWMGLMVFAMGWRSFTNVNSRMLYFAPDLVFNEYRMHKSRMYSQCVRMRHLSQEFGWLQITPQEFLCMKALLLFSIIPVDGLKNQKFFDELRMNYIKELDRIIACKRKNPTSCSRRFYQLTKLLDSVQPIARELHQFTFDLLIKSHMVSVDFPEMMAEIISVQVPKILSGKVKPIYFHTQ
Nature of the assay: Agonist activity at androgen receptor (unknown origin) by NH Pro assay.

Assay [1] has as its target T2, Mineralocorticoid receptor (Homo sapiens, UniProt P08235).
T2 sequence (P08235 whole entry): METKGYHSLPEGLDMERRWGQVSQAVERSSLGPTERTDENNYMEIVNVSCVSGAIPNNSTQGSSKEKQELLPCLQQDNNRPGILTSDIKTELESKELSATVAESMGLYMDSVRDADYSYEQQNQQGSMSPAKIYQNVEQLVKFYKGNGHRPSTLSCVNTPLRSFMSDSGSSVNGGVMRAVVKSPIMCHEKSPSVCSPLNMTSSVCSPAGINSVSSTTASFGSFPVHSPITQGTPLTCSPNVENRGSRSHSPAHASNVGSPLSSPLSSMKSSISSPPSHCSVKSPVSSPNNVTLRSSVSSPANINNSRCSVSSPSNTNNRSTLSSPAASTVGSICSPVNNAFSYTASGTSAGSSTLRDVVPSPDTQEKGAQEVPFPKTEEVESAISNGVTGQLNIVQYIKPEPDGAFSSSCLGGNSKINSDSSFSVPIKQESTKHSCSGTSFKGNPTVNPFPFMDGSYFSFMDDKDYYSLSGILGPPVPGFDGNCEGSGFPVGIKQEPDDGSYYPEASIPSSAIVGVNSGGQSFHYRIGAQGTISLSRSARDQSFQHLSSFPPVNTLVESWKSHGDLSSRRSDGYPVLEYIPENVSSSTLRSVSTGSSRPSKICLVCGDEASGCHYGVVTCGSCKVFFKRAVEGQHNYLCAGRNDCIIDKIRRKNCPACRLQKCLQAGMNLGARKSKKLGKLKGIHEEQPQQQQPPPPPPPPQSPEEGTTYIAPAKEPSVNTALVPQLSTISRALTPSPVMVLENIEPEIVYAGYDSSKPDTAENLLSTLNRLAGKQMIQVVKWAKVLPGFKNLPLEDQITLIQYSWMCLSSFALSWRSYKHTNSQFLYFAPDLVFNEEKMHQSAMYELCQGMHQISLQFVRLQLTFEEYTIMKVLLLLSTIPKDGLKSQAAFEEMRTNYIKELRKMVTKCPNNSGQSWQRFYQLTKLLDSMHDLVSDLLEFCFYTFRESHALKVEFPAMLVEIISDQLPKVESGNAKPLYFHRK
Nature of the assay: Antagonist activity at human mineralocorticoid receptor assessed as inhibition of binding to coactivator peptide by NH Pro assay.

Usually EC50 stands for the midpoint of the concentration-response curve. Higher therefore signals a need for much substance. As usually defined, the IC50 is the concentration at which inhibition is half-maximal. As for `C[C@H](c1ccc(F)cc1)N1C(=O)O[C@](Cc2ccc(F)cc2)(C(=O)NCc2ccc(Cl)c(Cl)c2)C1=O`, the EC50 at Androgen receptor was over 20000 nM. Further, the IC50 in assay [1] came to 180 nM.

`COc1cc(CNC(=O)[C@@]2(Cc3ccccc3)OC(=O)N([C@@H]3CCc4ccccc43)C2=O)cc(OC)c1` showed an EC50 on Androgen receptor of over 20000 nM. In addition, the IC50 in assay [1] turned out to be 33 nM.
